Tested on: IL-1β-positive cells
Assay: Immunohistochemistry, IL-1β-positive cells after CCI injury
Type: in vivo, rat
Conditions: single-dose 30 mg kg^-1 i.p.; cortical tissue adjacent to contusion core, 1 day post-injury
Description: A previously described CCI injury procedure was utilized (Chen et al., 2003). Male Sprague-Dawley rats, which have body weight of 250-300 g, were anaesthetized with sodium pentobarbital (i.p.; 50 mgkg^−1; Rhone Merieux, Harlow, UK) and placed in a stereotaxic frame. A 5-mm craniotomy was performed over the left parietal cortex, centered on the coronal suture and 3 mm lateral to the sagittal suture. Considerable care was taken to avoid injury to the underlying dura. Injury was made using a pneumatic piston with a rounded metal tip (2.5 mm diameter) that was angled 22.5° C. to the vertical so that the tip was perpendicular with the brain surface at the centre of the craniotomy. A velocity of 4 ms^−1 and a deformation depth 2 mm below the dura were used. The bone flap was immediately replaced and sealed, and the scalp was closed with sutures. Body temperature was monitored throughout the surgery by a rectal probe; temperature was maintained at 37.0±0.5° C. using a heated pad. […] Testing after injury was as follows: (1) real-time quantitative RT-PCR analysis for TNF-α, IL-1β and IL-6 mRNA expression at 6 h post-injury (n=7 for each group); (2) FluoroJade B (FJB) staining, TNF-α, IL-1β and IL-6 immunohistochemistry, as well as ELISA at 24 h post-injury to assess degenerative neurons and to determine cytokine expression (n=7 for each group). […]

For `O=c1cc(-c2ccccc2)oc2cc(O)c(O)c(O)c12` [baicalein], the “reduction in IL-1β-positive cells relative to vehicle” value was 40%.
